Measurements as given in BindingDB's records for PubMed 8100350 (University of Pennsylvania, 1993).
pKi: −log10 of the molar value. *1 amine or outer side, *2 acyl side, *3 side chain or, on linkers, in order; H or OH if unused. Where a SMILES comes first, the peptide text is derived from it. Bridges are numbered along the chain shown (N, C = ends). [ ]: non-standard residue; d: D form. The star is where a group is joined. ξ: configuration not given here. NH(1-naphthylmethyl) = c1ccc2c(CN*)cccc2c1; Phe(4-Cl) = N[C@@H](Cc1ccc(Cl)cc1)C(=O)O; dPhe(4-Cl) = N[C@H](Cc1ccc(Cl)cc1)C(=O)O; 1Nal = N[CH](Cc1cccc2ccccc12)C(=O)O; 2Nal = N[C@@H](Cc1ccc2ccccc2c1)C(=O)O; d2Nal = N[C@H](Cc1ccc2ccccc2c1)C(=O)O; X1 = O=C(C(N[*:1])S[*:3])[*:2]; Thr(3ξ) = CC(O)[C@H](N)C(=O)O; Thr(ol) = C[CH](O)[CH](N)CO; NMeA = CN[C@@H](C)C(=O)O; Abu = CC[C@H](N)C(=O)O; Ahp = NCCCCCCC(=O)O; Mpa = O=C(O)CCS

Assays:
[1] = target: Somatostatin receptor type 1 (Homo sapiens, UniProt P30872)
Sequence of Somatostatin receptor type 1 (P30872 whole entry): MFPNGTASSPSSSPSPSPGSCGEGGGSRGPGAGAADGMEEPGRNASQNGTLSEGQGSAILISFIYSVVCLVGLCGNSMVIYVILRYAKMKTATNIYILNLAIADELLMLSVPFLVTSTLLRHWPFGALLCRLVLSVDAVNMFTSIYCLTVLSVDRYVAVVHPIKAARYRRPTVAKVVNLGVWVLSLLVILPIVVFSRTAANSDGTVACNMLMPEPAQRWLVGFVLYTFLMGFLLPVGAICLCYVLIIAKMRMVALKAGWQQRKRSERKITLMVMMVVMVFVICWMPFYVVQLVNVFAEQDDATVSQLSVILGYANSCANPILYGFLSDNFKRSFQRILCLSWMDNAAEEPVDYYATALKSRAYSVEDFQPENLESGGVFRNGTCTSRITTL

[2] = target: Somatostatin receptor type 3 (Mus musculus, UniProt P30935)
Sequence of Somatostatin receptor type 3 (P30935 whole entry): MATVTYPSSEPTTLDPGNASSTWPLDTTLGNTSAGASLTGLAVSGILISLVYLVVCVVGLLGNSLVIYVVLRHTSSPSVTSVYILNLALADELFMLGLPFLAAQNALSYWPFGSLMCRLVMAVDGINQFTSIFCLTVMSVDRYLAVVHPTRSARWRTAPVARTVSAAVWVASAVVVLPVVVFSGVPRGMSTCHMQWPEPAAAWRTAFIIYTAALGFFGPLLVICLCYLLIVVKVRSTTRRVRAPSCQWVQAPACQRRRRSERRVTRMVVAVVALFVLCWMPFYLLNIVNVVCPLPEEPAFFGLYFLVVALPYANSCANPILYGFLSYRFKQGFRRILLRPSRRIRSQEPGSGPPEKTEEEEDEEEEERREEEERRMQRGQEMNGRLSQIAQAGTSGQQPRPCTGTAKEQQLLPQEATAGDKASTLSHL

[3] = target: Somatostatin receptor type 2 (Mus musculus, UniProt P30875)
Sequence of Somatostatin receptor type 2 (P30875 whole entry): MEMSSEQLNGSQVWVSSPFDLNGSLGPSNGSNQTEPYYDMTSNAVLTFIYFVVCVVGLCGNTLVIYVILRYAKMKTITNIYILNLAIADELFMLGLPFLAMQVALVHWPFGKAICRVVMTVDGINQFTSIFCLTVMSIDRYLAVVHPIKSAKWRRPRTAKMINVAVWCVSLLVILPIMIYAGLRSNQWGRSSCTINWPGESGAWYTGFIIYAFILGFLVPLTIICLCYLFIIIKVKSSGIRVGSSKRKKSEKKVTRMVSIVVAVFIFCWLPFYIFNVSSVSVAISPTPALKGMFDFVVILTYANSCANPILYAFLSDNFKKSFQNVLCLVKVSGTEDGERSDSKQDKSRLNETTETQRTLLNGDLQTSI

| SMILES | pKi [1] | pKi [2] | pKi [3] |
| --- | --- | --- | --- |
| CC(O)[C@H](NC(=O)[C@H](CCCCN)NC(=O)[C@@H](Cc1c[nH]c2ccccc12)NC(=O)[C@H](Cc1ccc(O)cc1)NC(=O)[C@@H](C)NC(=O)[C@@H](N)Cc1ccccc1)C(=O)N[C@@H](C)C(=O)N[C@@H](Cc1cccc2ccccc12)C(N)=O (some centres undefined) [BIM 23070] (H-F[dA]Y[dW]K[Thr(3ξ)]A[1Nal]-NH2) | 6.00 | 6.95 | 8.11 |
| CC(C)[C@H](NC(=O)[C@H](CCCCN)NC(=O)[C@@H](Cc1c[nH]c2ccccc12)NC(=O)[C@H](Cc1ccc(O)cc1)NC(=O)[C@H](Cc1ccccc1)NC(=O)[C@H](N)Cc1ccccc1)C(=O)N[C@@H](Cc1ccccc1)C(=O)N[C@H](C(N)=O)[C@@H](C)O [BIM-23058] (H-[dF]FY[dW]KVFT-NH2) | 6.00 | 10.40 | 7.34 |
| C[C@@H](O)[C@H](NC(=O)[C@H](Cc1ccccc1)NC(=O)[C@@H](NC(=O)[C@H](CCCCN)NC(=O)[C@@H](Cc1c[nH]c2ccccc12)NC(=O)[C@H](Cc1ccccc1)NC(=O)[C@H](Cc1ccccc1)NC(=O)[C@H](N)Cc1ccccc1)[C@@H](C)O)C(N)=O [CAS_133073-82-2] (H-[dF]FF[dW]KTFT-NH2) | 7.64 | 9.38 | 7.49 |
| CC(C)[C@H](NC(=O)[C@H](CCCCN)NC(=O)[C@@H](Cc1c[nH]c2ccccc12)NC(=O)[C@H](Cc1ccc(O)cc1)NC(=O)[C@H](C)NC(=O)[C@H](N)Cc1ccc(Cl)cc1)C(=O)N[C@@H](C)C(=O)N[C@@H](Cc1ccc2ccccc2c1)C(N)=O [CAS_150155-67-2] (H-[dPhe(4-Cl)]AY[dW]KVA[2Nal]-NH2) | 6.00 | 6.84 | 7.66 |
| CC(C)[C@H](NC(=O)[C@H](CCCCN)NC(=O)[C@@H](Cc1c[nH]c2ccccc12)NC(=O)[C@H](Cc1ccc(O)cc1)NC(=O)[C@H](C)NC(=O)[C@H](N)Cc1ccc2ccccc2c1)C(=O)N[C@@H](C)C(=O)N[C@H](C(N)=O)[C@@H](C)O [D-Nal-Ala-Tyr-D-Trp-Lys-Val-Ala-Thr-NH2] (H-[d2Nal]AY[dW]KVAT-NH2) | 6.00 | 8.00 | 7.07 |
| CC(C)[C@H](NC(=O)[C@H](CCCCN)NC(=O)[C@@H](Cc1c[nH]c2ccccc12)NC(=O)[C@H](Cc1ccc(O)cc1)NC(=O)[C@H](C)NC(=O)[C@H](N)Cc1ccccc1)C(=O)N[C@@H](C)C(=O)N[C@H](Cc1ccc2ccccc2c1)C(N)=O [D-Phe-AIa-Tyr-D-Trp-Lys-Val-Ala-D-Nal-NH2] (H-[dF]AY[dW]KVA[d2Nal]-NH2) | 6.84 | 7.19 | 7.22 |
| CC(C)[C@H](NC(=O)[C@H](CCCCN)NC(=O)[C@@H](Cc1c[nH]c2ccccc12)NC(=O)[C@H](Cc1ccc(O)cc1)NC(=O)[C@H](Cc1ccccc1)NC(=O)[C@H](N)Cc1ccccc1)C(=O)N[C@@H](Cc1ccccc1)C(=O)N[C@H](Cc1ccccc1)C(N)=O [D-Phe-Phe-Tyr-D-Trp-Lys-Val-Phe-D-Phe-NH2] (H-[dF]FY[dW]KVF[dF]-NH2) | 6.00 | 7.42 | < 5.00 |
| CC(C)[C@H](NC(=O)[C@H](CCCCN)NC(=O)[C@@H](Cc1c[nH]c2ccccc12)NC(=O)[C@H](Cc1ccc(O)cc1)NC(=O)[C@H](C)NC(=O)[C@H](N)Cc1ccccc1)C(=O)N[C@@H](C)C(=O)N[C@@H](Cc1ccc2ccccc2c1)C(N)=O [L-Alaninamide,D-phenylalanyl-L-alanyl-L-tyrosyl-D-tryptophyl-L-lysyl-L-valyl-L-alanyl-3-(2-naphthalenyl)-(9CI)] (H-[dF]AY[dW]KVA[2Nal]-NH2) | 6.00 | 6.82 | 8.21 |

More lines, now with the values ahead:

| pKi [1] | pKi [2] | pKi [3] | SMILES |
| --- | --- | --- | --- |
| 6.00 | 9.10 | 9.82 | C[C@@H](O)[C@H](NC(=O)[C@H](Cc1ccccc1)NC(=O)[C@@H](NC(=O)[C@H](CCCCN)NC(=O)[C@@H](Cc1c[nH]c2ccccc12)NC(=O)[C@H](Cc1ccc(O)cc1)NC(=O)[C@H](Cc1ccc(Cl)cc1)NC(=O)[C@H](N)Cc1ccccc1)[C@@H](C)O)C(N)=O [BIM 23068] (H-[dF][Phe(4-Cl)]Y[dW]KTFT-NH2) |
| 6.00 | 8.62 | 12.00 | CC[C@@H]1NC(=O)[C@H](CCCCN)NC(=O)[C@@H](Cc2c[nH]c3ccccc23)NC(=O)[C@H](Cc2ccc(O)cc2)NC(=O)[C@H](C)N(C)C(=O)[C@H](Cc2ccccc2)NC1=O [BIM-23027] (cyclo([Abu]F[NMeA]Y[dW]K)) |
| 6.00 | 6.88 | 8.21 | CC(C)[C@@H]1NC(=O)[C@H](CCCCN)NC(=O)[C@@H](Cc2c[nH]c3ccccc23)NC(=O)[C@H](Cc2ccc(O)cc2)NC(=O)CCSSC(C(=O)N[C@@H](Cc2ccccc2)C(N)=O)NC1=O (some centres undefined) [CAS_117580-24-2] ([Mpa]Y[dW]KV[X1]F-NH2; disulfide 1-6) |
| 6.00 | 7.96 | 7.40 | C[C@@H](O)[C@H](NC(=O)[C@H](Cc1ccccc1)NC(=O)[C@@H](NC(=O)[C@H](CCCCN)NC(=O)[C@@H](Cc1c[nH]c2ccccc12)NC(=O)[C@H](Cc1ccc(O)cc1)NC(=O)[C@H](Cc1ccc(Cl)cc1)NC(=O)[C@H](N)Cc1ccc2ccccc2c1)[C@@H](C)O)C(N)=O [CAS_150155-63-8] (H-[d2Nal][Phe(4-Cl)]Y[dW]KTFT-NH2) |
| 6.00 | 8.15 | 11.10 | C[C@@H](O)[C@H](NC(=O)[C@@H]1CSSC[C@H](NC(=O)[C@H](N)Cc2ccc3ccccc3c2)C(=O)N[C@@H](Cc2ccc(O)cc2)C(=O)N[C@H](Cc2c[nH]c3ccccc23)C(=O)N[C@@H](CCCCN)C(=O)N[C@@H]([C@@H](C)O)C(=O)N1)C(N)=O [D-Nal-c[Cys-Tyr-D-Trp-Lys-Thr-Cys]-Thr-NH2] |
| 6.00 | 7.87 | 12.00 | CC[C@@H]1NC(=O)[C@H](CCCCN)NC(=O)[C@@H](Cc2c[nH]c3ccccc23)NC(=O)[C@H](Cc2ccc(O)cc2)NC(=O)[C@@H](NC(=O)[C@H](N)Cc2ccccc2)CSSC[C@@H](C(=O)N[C@H](C(N)=O)[C@@H](C)O)NC1=O [D-Phe-L-Cys(1)-L-Tyr-D-Trp-L-Lys-L-Abu-L-Cys(1)-L-Thr-NH2] |
| 6.62 | 6.78 | 9.03 | CC(C)C1NC(=O)C(CCCCN)NC(=O)C(Cc2c[nH]c3ccccc23)NC(=O)C(Cc2ccc(O)cc2)NC(=O)C(NC(=O)C(N)Cc2cccc3ccccc23)CSSCC(C(=O)NC(CO)C(C)O)NC1=O (centres undefined) [DC23-60] (H-[1Nal]CYWKVC[Thr(ol)]; disulfide 2-7; configuration not given here) |
| 6.42 | 7.70 | 8.32 | CC(O)C1NC(=O)C(CCCCN)NC(=O)C(Cc2c[nH]c3ccccc23)NC(=O)C(Cc2ccccc2)NC(=O)C(NC(=O)C(N)Cc2ccccc2)CSSCC(C(=O)NCc2cccc3ccccc23)NC1=O (centres undefined) [EC5-21] (H-FCFWKTC-{NH(1-naphthylmethyl)}; disulfide 2-7; configuration not given here) |
| 6.00 | 7.52 | 7.54 | C[C@@H](O)[C@@H]1NC(=O)[C@H](CCCCN)NC(=O)[C@@H](Cc2c[nH]c3ccccc23)NC(=O)[C@H](Cc2c[nH]c3ccccc23)NC(=O)[C@H](Cc2ccccc2)NC(=O)CCCCCCNC(=O)[C@H](Cc2ccccc2)NC1=O [L-362855] (cyclo([Ahp]FW[dW]KTF)) |
| 6.24 | 7.62 | 8.08 | C[C@@H](O)[C@@H]1NC(=O)[C@H](CCCCN)NC(=O)[C@@H](Cc2c[nH]c3ccccc23)NC(=O)[C@H](Cc2ccc(Cl)cc2)NC(=O)[C@H](Cc2ccccc2)NC(=O)CCCCCCNC(=O)[C@H](Cc2ccccc2)NC1=O [L-362862] (cyclo([Ahp]F[Phe(4-Cl)][dW]KTF)) |
